Reference: US5041441A, “Method of chemotherapy using 1-phenyl-2-decanoylamino-3-morpholino-1-propanol” (The Regents of the University of Michigan, priority 1988, dated 1991)

Key:
[1] = test system: Ehrlich ascites tumor cells (EATC); assay: Antitumor activity in mice inoculated i.p. with Ehrlich ascites tumor cells; assay type: in vivo; conditions: for Median T/C ratio / Number of cured mice at 60 days / Number of cured mice at 90 days / Surviving at 60 days (cured mice and mice bearing a solid tumor) / Surviving at 90 days (cured mice and mice bearing a solid tumor): acetate salt i.p.; for Surviving at 10 days / Body weight change (mean, end of 10 days): mouse, in vivo, ip
Procedure: Male mice of the ICR (Swiss Hsd) strain from Harlan--Sprague Dawley (Indianapolis, Ind.) were injected intraperitoneal with saline containing 2×10^6 Ehrlich ascites tumor cells (EATC) on day 0. […] Treatment began 24 hours later with intraperitoneal injections of saline or inhibitor, either as the acetate salt or as the hydrochloride salt. The inhibitor was dissolved in 40° C. saline and injected at 10 μl/g body weight. In the case of drugs that were difficult to dissolve, e.g. the hydrochlorides, a non-ionic, low toxicity detergent was included to emulsify the drug, making it suitable for injection. Two cages of mice were assigned to each control or experimental group and fed standard lab chow. In almost all cases, the mice were injected daily for a total of 10 doses.
The 1-tailed Student t-test for unpaired samples was used for statistical analysis.
The experimental procedure set forth above was again followed with homologs of PDMP made from fatty acids of 10 to 18 carbon atom length. The compounds were not resolved into D- and L-forms but the threo stereomers were used as the hydrochlorides. All samples were emulsified in Myrj 52 (15 mg/kg).

[2] = Toxicity test in normal, noncancerous mice; assay type: in vivo
Procedure: Ten normal, noncancerous mice were injected with D-threo-PDMP daily for 10 days, then killed 5 hours later with the results set forth in Table 4.
The preceding experiment was repeated in order to observe less evancescent responses: the mice were killed 40 hours after the last injection following 12 daily injections. Here, of the absolute weights, only the kidneys were statistically different in treated mice, 11% smaller (p less than 0.05%). Comparing the 40 hour and 5 hour experiments it seems likely that the liver weights renormalized faster than the kidneys, perhaps a reflection of faster glucolipid turnover.
This failure to harm the bone marrow and related systems compares favorably with the high toxicity of many antineoplastics.

[3] = target: T1, glucosyltransferase (microsomes from normal liver) (Mus musculus, UniProt O88693); assay: Glucosyltransferase assay, microsomes from normal liver; assay type: biochemical
T1 construct: The microsomes from normal liver (72 μg protein) required 5 μM D-threo-PDMP; from tissue; host or cells: normal liver microsomes, ICR Swiss mice
T1 sequence (O88693 1-394): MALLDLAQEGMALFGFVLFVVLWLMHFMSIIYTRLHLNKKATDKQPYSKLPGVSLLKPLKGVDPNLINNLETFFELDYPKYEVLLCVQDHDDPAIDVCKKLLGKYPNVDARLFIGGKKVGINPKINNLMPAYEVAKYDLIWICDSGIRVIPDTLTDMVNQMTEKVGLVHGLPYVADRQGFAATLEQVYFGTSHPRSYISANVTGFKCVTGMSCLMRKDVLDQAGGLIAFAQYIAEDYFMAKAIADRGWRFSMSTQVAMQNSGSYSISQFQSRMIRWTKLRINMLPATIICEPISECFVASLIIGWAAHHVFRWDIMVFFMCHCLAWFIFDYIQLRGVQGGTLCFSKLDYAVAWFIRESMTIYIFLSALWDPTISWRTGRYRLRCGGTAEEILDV
Procedure: Evidence that D-threo-PDMP acts to inhibit GlcCer biosynthesis was provided as follows from assay of glucosyltransferase. Microsomes as source of enzyme were prepared by highspeed centrifugation and stored at -70° C. before use. The incubations were at 37° C. for 30 minutes with microsomes, ATP, liposomal octanoyl sphingosine, UDP-[^3 H]glu, Mg^2+, and dithioerythritol. Microsomes from EATC (0.50 mg protein) required 20 μM PDMP to reduce the glucosyltransferase activity in half. The microsomes from normal liver (72 μg protein) required 5 μM D-threo-PDMP. While the EATC enzyme seems to be less sensitive to the inhibitor, the intraperitoneal concentration of inhibitor is initially very high.
Our tentative conclusion is that these cells obtain much of their GlcCer from the peritoneum. Thus, the effectiveness of the drug can tentatively be ascribed to a blockage of GlcCer synthesis by both the host and tumor cells.

EATC = assay: Rechallenge of surviving treated mice with EATC; assay type: in vivo
From the text: Four mice who had survived 63 days post-inoculation were challenged with another 2×10^6 EATC. […] Normal mice of this age, like the younger ones, are readily attacked by EATC. We conclude that the mice have, in effect, been "live-cell vaccinated" with EATC plus PDMP.

Ehrlich ascites cells = assay: Growth of Ehrlich ascites cells in vivo (volume of packed cells); conditions: treatment begun 3 days after EATC inoculation, 5 injections, killed 1 day later; 100 mg/kg
Procedure: A suspension of GlcCer was injected into one group of 10 mice inoculated 1 day earlier with EATC as before. Injectable suspensions of GlcCer and galactosylceramide (GalCer) were prepared by mechanical grinding in saline (10 mg/ml) and injected at a dosage of 100 mg/kg. In one experiment, the mice were killed 1 day after the last of eight daily injections and the ascites cells were flushed out of the abdomen with buffered saline and washed.
Treatments were begun 3 days after EATC inoculation. Only 5 injections were given and the mice were killed 1 day later.

[4] = 2 × 250 mg/kg/day, days 1-5, 1 × 150, days 6-10
[5] = 100 mg/kg/day, 10 injections, killed 5 hours later

CCCCCCCCCC(=O)N[C@H](CN1CCOCC1)[C@H](O)c1ccccc1 [D-threo-PDMP, 1-Phenyl-2-Decanoylamino-3-Morpholino-1-Propanol]
Median T/C ratio ([1]; 1 × 100 mg/kg/day, days 1-10): 191% | Number of cured mice at 60 days ([1]; 1 × 100 mg/kg/day, days 1-10): 4 | Number of cured mice at 90 days ([1]; 1 × 100 mg/kg/day, days 1-10): 4 | Surviving at 60 days (cured mice and mice bearing a solid tumor) ([1]; 1 × 100 mg/kg/day, days 1-10): 7 | Surviving at 90 days (cured mice and mice bearing a solid tumor) ([1]; 1 × 100 mg/kg/day, days 1-10, mice with solid tumors killed before 90 days): 4 | Median T/C ratio ([1]; 1 × 150 mg/kg/day, days 1-10): 319% | Number of cured mice at 60 days ([1]; 1 × 150 mg/kg/day, days 1-10): 3 | Number of cured mice at 90 days ([1]; 1 × 150 mg/kg/day, days 1-10): 3 | Surviving at 60 days (cured mice and mice bearing a solid tumor) ([1]; 1 × 150 mg/kg/day, days 1-10): 7 | Surviving at 90 days (cured mice and mice bearing a solid tumor) ([1]; 1 × 150 mg/kg/day, days 1-10): 5 | Median T/C ratio ([1]; 2 × 100 mg/kg/day, days 1-5): 238% | Number of cured mice at 60 days ([1]; 2 × 100 mg/kg/day, days 1-5): 3 | Number of cured mice at 90 days ([1]; 2 × 100 mg/kg/day, days 1-5): 3 | Surviving at 60 days (cured mice and mice bearing a solid tumor) ([1]; 2 × 100 mg/kg/day, days 1-5): 5 | Surviving at 90 days (cured mice and mice bearing a solid tumor) ([1]; 2 × 100 mg/kg/day, days 1-5, mice with solid tumors killed before 90 days): 3 | Median T/C ratio [1, 4]: 150% | Number of cured mice at 60 days [1, 4]: 3 | Number of cured mice at 90 days [1, 4]: 3 | Surviving at 60 days (cured mice and mice bearing a solid tumor) [1, 4]: 5 | Surviving at 90 days (cured mice and mice bearing a solid tumor) [1, 4]: 5 | Percentage surviving for 60 days ([1]; dose response test, 75 mg/kg): 10% | Percentage surviving for 60 days ([1]; dose response test, 100 mg/kg): 20% | Percentage surviving for 60 days ([1]; dose response test, 125 mg/kg): 50% | Time of death compared with controls ([1]; dose response test, 25 or 50 mg/kg): died at about the same time as the controls | Mice still alive and healthy more than 5 months after inoculation ([1]; dose response test, two most-heavily dosed groups): 40% | Surviving at 10 days ([1]; 100 mg/kg/day): 10/10 | Body weight change (mean, end of 10 days) ([1]; 150 mg/kg/day): -0.36 g | Surviving at 10 days ([1]; 150 mg/kg/day): 10/10 | Body weight change (mean, end of 10 days) ([1]; 250 mg/kg/day): -3.49 g | Surviving at 10 days ([1]; 250 mg/kg/day): 8/9 | Mice completely cured ([1]; variety of regimens): About 30% | Average body weight gain of treated mice ([2]; 100 mg/kg/day, 10 injections, controls gained 4.5 g): 2.1 g | Body weight smaller than controls [2, 5]: 8% | Brain Weight [2, 5]: 0.444 g | Brain Weight (% of body) [2, 5]: 1.67 % of body | Kidney Weight [2, 5]: 0.329 g | Kidney Weight (% of body) [2, 5]: 1.24 % of body | Kidney weight smaller than controls [2, 5]: 17% | Liver Weight [2, 5]: 1.32 g | Liver Weight (% of body) [2, 5]: 4.97 % of body | Liver weight smaller than controls [2, 5]: 18% | Spleen Weight [2, 5]: 0.095 g | Spleen Weight (% of body) [2, 5]: 0.36 % of body | Spleen size compared with controls [2, 5]: slightly but not significantly smaller | Body Weight ([2]; 100 mg/kg/day, 10 injections, killed 5 hours later, initial mean 24.4 g): 26.5 g | Brain weight smaller than controls ([2]; 100 mg/kg/day, 10 injections, killed 5 hours later, p less than 0.025): 4.6% | Cell counts on orbital blood (RBC, WBC, differential monocytes, lymphocytes, eosinophiles, neutrophils) ([2]; 12 daily injections): no abnormalities | Kidney weight (absolute) smaller than controls ([2]; 12 daily injections, killed 40 hours after the last injection): 11% | IC50 [3]: 5 µM | Survivors developing no EATC after challenge (EATC; five survivors challenged 135 and 100 days after inoculation, greater than 5 months of observation): four of them developed no EATC | Effect of reinoculation with 2×10^6 EATC (EATC; four mice surviving 63 days post-inoculation, observed greater than 7 months more): no effects of the reinoculation | Volume of packed cells (Ehrlich ascites cells): 1.68 ± 0.86 ml/mouse | Volume of packed cells, % of controls (Ehrlich ascites cells): 62 % of controls
